# In US10577363B2, “Substituted piperidine compounds” (EPIZYME, INC., priority 2014, dated 2020):
# Assays:
# SMYD3 [1] = target: T1, SMYD3 (Homo sapiens (Human), UniProt Q9H7B4); test: SMYD3 biochemical assay (SPA, 3H-SAM methylation of MEKK2 protein substrate); details: average of n = 1 to n = 50; read-out: SMYD3 Biochem IC50
# How it was run: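 Enzyme: untagged full-length human SMYD3 from E. coli; substrate GST-tagged MEKK2 from insect cells. Buffer 25 mM Tris-Cl pH 8.0, 1 mM TCEP, 0.005% BSG/Tween 20. 30 min compound–enzyme preincubation at RT; 3H-SAM/MEKK2 start; stop with cold SAM (100 uM final); SPA readout in cpm.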
# SMYD3 [2] = target: T1, SMYD3; test: SMYD3 cell assay (Trimethyl-MEKK2 In-Cell Western in 293T/17 cells); format: cell-based; details: average of n = 1 to n = 50; read-out: SMYD3 Cell IC50
# How it was run: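 In-Cell Western readout: methanol-fixed cells stained for trimethyl-MEKK2 and flag tag, ratio per well normalized to DMSO and background controls.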
# T1 sequence (Q9H7B4 whole entry): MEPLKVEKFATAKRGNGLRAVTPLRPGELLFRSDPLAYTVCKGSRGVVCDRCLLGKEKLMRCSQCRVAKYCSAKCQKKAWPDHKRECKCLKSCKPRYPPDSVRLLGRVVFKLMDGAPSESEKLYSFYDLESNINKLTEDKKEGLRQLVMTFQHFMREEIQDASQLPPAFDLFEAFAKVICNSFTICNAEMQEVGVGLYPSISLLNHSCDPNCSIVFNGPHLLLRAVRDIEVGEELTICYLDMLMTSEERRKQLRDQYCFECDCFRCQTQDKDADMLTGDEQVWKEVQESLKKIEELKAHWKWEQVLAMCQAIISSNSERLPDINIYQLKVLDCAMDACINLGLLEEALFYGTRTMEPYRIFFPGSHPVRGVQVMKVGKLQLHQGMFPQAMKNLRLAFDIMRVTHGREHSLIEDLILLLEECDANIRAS
SMILES,IC50 (SMYD3 [1]),IC50 (SMYD3 [2])
"CCC1CN(S(=O)(=O)N2[C@@H]3CC[C@H]2C[C@@H](NC(=O)c2cc(C4CC4)on2)C3)CCN1C (stereo partly drawn) [compound 713, 5-cyclopropyl-N-((1R,3r,5S)-8-((3-ethyl-4-methylpiperazin-1-yl)sulfonyl)-8-azabicyclo[3.2.1]octan-3-yl)isoxazole-3-carboxamide]",293 nM,1180 nM
"CN1CCC(N(C)S(=O)(=O)N2[C@@H]3CCC[C@H]2C[C@H](NC(=O)c2cc(C4CC4)on2)C3)CC1 [compound 718, 5-cyclopropyl-N-((1R,3s,5S)-9-(N-methyl-N-(1-methylpiperidin-4-yl)sulfamoyl)-9-azabicyclo[3.3.1]nonan-3-yl)isoxazole-3-carboxamide]",309 nM,1620 nM
"C[C@H]1CN(S(=O)(=O)N(C)C2CCN(Cc3ccccc3)CC2)CC[C@H]1NC(=O)c1cc(C2CC2)on1 [compound 719, N-((3S,4R)-1-(N-(1-benzylpiperidin-4-yl)-N-methylsulfamoyl)-3-methylpiperidin-4-yl)-5-cyclopropylisoxazole-3-carboxamide]",320 nM,1210 nM
"O=C(N[C@@H]1C[C@H]2CC[C@@H](C1)N2S(=O)(=O)CC1CCCNC1)c1cc(C2CC2)on1 (stereo partly drawn) [compound 721, 5-cyclopropyl-N-((1R,3s,5S)-8-((piperidin-3-ylmethyl)sulfonyl)-8-azabicyclo[3.2.1]octan-3-yl)isoxazole-3-carboxamide]",322 nM,1830 nM
"O=C(N[C@H]1C[C@H]2CC[C@@H](C1)N2S(=O)(=O)N1CCNC(c2ccccc2)C1)c1cc(C2CC2)on1 (stereo partly drawn) [compound 722, 5-cyclopropyl-N-((1R,3r,5S)-8-((3-phenylpiperazin-1-yl)sulfonyl)-8-azabicyclo[3.2.1]octan-3-yl)isoxazole-3-carboxamide]",326 nM,1520 nM
"CN(C1CCNCC1)S(=O)(=O)N1[C@@H]2CC[C@H]1C[C@H](NC(=O)c1cc(C3CC3)on1)C2 [compound 724, 5-cyclopropyl-N-((1R,3s,5S)-8-(N-methyl-N-(piperidin-4-yl)sulfamoyl)-8-azabicyclo[3.2.1]octan-3-yl)isoxazole-3-carboxamide]",333 nM,2440 nM
"O=C(N[C@H]1C[C@H]2CC[C@@H](C1)N2S(=O)(=O)CCN1CCC(OCc2ccccc2)C1)c1cc(C2CC2)on1 (stereo partly drawn) [compound 726, N-((1R,3r,5S)-8-((2-(3-(benzyloxy)pyrrolidin-1-yl)ethyl)sulfonyl)-8-azabicyclo[3.2.1]octan-3-yl)-5-cyclopropylisoxazole-3-carboxamide]",360 nM,2470 nM
"O=C(N[C@@H]1C[C@H]2CC[C@@H](C1)N2S(=O)(=O)C1CCCNC1)c1cc(C2CC2)on1 (stereo partly drawn) [compound 729, 5-cyclopropyl-N-((1R,3s,5S)-8-(piperidin-3-ylsulfonyl)-8-azabicyclo[3.2.1]octan-3-yl)isoxazole-3-carboxamide]",411 nM,2530 nM
"Nc1cc(S(=O)(=O)N2[C@@H]3CCC[C@H]2C[C@@H](NC(=O)c2cc(C4CC4)on2)C3)ccn1 [compound 730, N-((1R,3r,5S)-9-((2-aminopyridin-4-yl)sulfonyl)-9-azabicyclo[3.3.1]nonan-3-yl)-5-cyclopropylisoxazole-3-carboxamide]",413 nM,1320 nM
"O=C(NC1C[C@H]2CCC[C@H](C1)N2S(=O)(=O)c1ccc(Cl)cn1)c1cc(C2CC2)on1 (stereo partly drawn) [compound 733, N-((1R,5R)-9-((5-chloropyridin-2-yl)sulfonyl)-9-azabicyclo[3.3.1]nonan-3-yl)-5-cyclopropylisoxazole-3-carboxamide]",442 nM,1960 nM
"NCCCNc1ncccc1S(=O)(=O)N1[C@@H]2CCC[C@H]1C[C@@H](NC(=O)c1cc(C3CC3)on1)C2 [compound 734, N-((1R,3r,5S)-9-((2-((3-aminopropyl)amino)pyridin-3-yl)sulfonyl)-9-azabicyclo[3.3.1]nonan-3-yl)-5-cyclopropylisoxazole-3-carboxamide]",442 nM,4170 nM

# More lines, now with the values ahead:
IC50 (SMYD3 [1]),IC50 (SMYD3 [2]),SMILES
261 nM,831 nM,"C[C@H]1CN(S(=O)(=O)N2CCN(C)CC2)CC[C@H]1NC(=O)c1cc(C2CC2)on1 [compound 710, 5-cyclopropyl-N-((3S,4R)-3-methyl-1-((4-methylpiperazin-1-yl)sulfonyl)piperidin-4-yl)isoxazole-3-carboxamide]"
272 nM,1150 nM,"CC[C@@H]1CN(S(=O)(=O)N2CC[C@H](NC(=O)c3cc(C4CC4)on3)C[C@@H]2C)CCN1C [compound 711, 5-cyclopropyl-N-((2S,4S)-1-(((R)-3-ethyl-4-methylpiperazin-1-yl)sulfonyl)-2-methylpiperidin-4-yl)isoxazole-3-carboxamide]"
275 nM,1100 nM,"C[C@@H]1CN(S(=O)(=O)N2CC[C@H](NC(=O)c3cc(C4CC4)on3)C[C@@H]2C)[C@@H](C)CN1C [compound 712, 5-cyclopropyl-N-((2S,4S)-2-methyl-1-(((2S,5R)-2,4,5-trimethylpiperazin-1-yl)sulfonyl)piperidin-4-yl)isoxazole-3-carboxamide]"
295 nM,3150 nM,"CN(C1CCNCC1)S(=O)(=O)N1CC[C@@H](NC(=O)c2cc(C3CC3)on2)C[C@@H]1Cc1ccccc1 [compound 714, N-((2S,4R)-2-benzyl-1-(N-methyl-N-(piperidin-4-yl)sulfamoyl)piperidin-4-yl)-5-cyclopropylisoxazole-3-carboxamide]"
297 nM,3040 nM,"CN(C1CCNCC1)S(=O)(=O)N1CC[C@H](NC(=O)c2cc(C3CC3)on2)C[C@H]1Cc1ccccc1 [compound 715, N-((2R,4S)-2-benzyl-1-(N-methyl-N-(piperidin-4-yl)sulfamoyl)piperidin-4-yl)-5-cyclopropylisoxazole-3-carboxamide]"
303 nM,3530 nM,"C[C@@H]1C[C@H](NC(=O)c2cc(C3CC3)on2)CCN1S(=O)(=O)CCC(N)Cc1ccccc1 (stereo partly drawn) [compound 716, N-((2R,4R)-1-((3-amino-4-phenylbutyl)sulfonyl)-2-methylpiperidin-4-yl)-5-cyclopropylisoxazole-3-carboxamide]"
306 nM,2020 nM,"O=C(N[C@H]1CCN(S(=O)(=O)C2CCNC2)[C@@H](Cc2ccccc2)C1)c1cc(C2CC2)on1 (stereo partly drawn) [compound 717, N-((2S,4S)-2-benzyl-1-(pyrrolidin-3-ylsulfonyl)piperidin-4-yl)-5-cyclopropylisoxazole-3-carboxamide]"
322 nM,2430 nM,"COCCN1CCC(CS(=O)(=O)N2CC[C@H](NC(=O)c3cc(C4CC4)on3)C[C@@H]2Cc2ccccc2)CC1 [compound 720, N-((2S,4S)-2-benzyl-1-(((1-(2-methoxyethyl)piperidin-4-yl)methyl)sulfonyl)piperidin-4-yl)-5-cyclopropylisoxazole-3-carboxamide]"
326 nM,2730 nM,"O=C(N[C@@H]1CCN(S(=O)(=O)CC2CCNCC2)[C@@H](Cc2ccccc2)C1)c1cc(C2CC2)on1 [compound 723, N-((2S,4R)-2-benzyl-1-((piperidin-4-ylmethyl)sulfonyl)piperidin-4-yl)-5-cyclopropylisoxazole-3-carboxamide]"
340 nM,3070 nM,"O=C(N[C@H]1CCN(S(=O)(=O)C2CCCNC2)[C@@H](Cc2ccccc2)C1)c1cc(C2CC2)on1 (stereo partly drawn) [compound 725, N-((2S,4S)-2-benzyl-1-(piperidin-3-ylsulfonyl)piperidin-4-yl)-5-cyclopropylisoxazole-3-carboxamide]"
363 nM,1390 nM,"CNC/C=C/S(=O)(=O)N1CCC(NC(=O)c2cc(C3CC3)on2)CC1 [compound 727, (E)-5-cyclopropyl-N-(1-((3-(methylamino)prop-1-en-1-yl)sulfonyl)piperidin-4-yl)isoxazole-3-carboxamide]"
380 nM,1370 nM,"CC(C)[C@@H]1CN(S(=O)(=O)N2CC[C@H](NC(=O)c3cc(C4CC4)on3)C[C@@H]2C)CCN1C [compound 728, 5-cyclopropyl-N-((2S,4S)-1-(((R)-3-isopropyl-4-methylpiperazin-1-yl)sulfonyl)-2-methylpiperidin-4-yl)isoxazole-3-carboxamide]"
418 nM,1330 nM,"C[C@H]1CN(S(=O)(=O)N2CCN(C)CC2)[C@@H](C)C[C@H]1NC(=O)c1cc(C2CC2)on1 [compound 731, 5-cyclopropyl-N-((2S,4R,5S)-2,5-dimethyl-1-((4-methylpiperazin-1-yl)sulfonyl)piperidin-4-yl)isoxazole-3-carboxamide]"
431 nM,1460 nM,"C[C@H]1CN(S(=O)(=O)CCN2CCCC2)[C@@H](C)C[C@H]1NC(=O)c1cc(C2CC2)on1 [compound 732, 5-cyclopropyl-N-((2S,4R,5S)-2,5-dimethyl-1-((2-(pyrrolidin-1-yl)ethyl)sulfonyl)piperidin-4-yl)isoxazole-3-carboxamide]"
446 nM,1360 nM,"C[C@H]1CN(S(=O)(=O)N2CC[C@H](NC(=O)c3cc(C4CC4)on3)C[C@@H]2C)CCN1C [compound 735, 5-cyclopropyl-N-((2S,4S)-1-(((S)-3,4-dimethylpiperazin-1-yl)sulfonyl)-2-methylpiperidin-4-yl)isoxazole-3-carboxamide]"
452 nM,2030 nM,"C[C@H]1C[C@@H](NC(=O)c2cc(C3CC3)on2)CCN1S(=O)(=O)N1CCNC(Cc2ccccc2)C1 (stereo partly drawn) [compound 736, N-((2S,4S)-1-((3-benzylpiperazin-1-yl)sulfonyl)-2-methylpiperidin-4-yl)-5-cyclopropylisoxazole-3-carboxamide]"
